Measurements from EP4725507A1, “POLYPEPTIDE CONJUGATE, PHARMACEUTICAL COMPOSITION CONTAINING POLYPEPTIDE CONJUGATE AND USE THEREOF” (Nanjing Anji Biotechnology Co., Ltd., priority 2023, dated 2025).
Values after ≈ are worked out from the molar mass of the structure shown.

What was measured:
[1] = Solubility in water (HPLC, saturated solution); type: physicochemical; conditions: thermodynamic from solid, in water (ultrapure)
Description: 25, 50, 100, 200, 300, and 400 µL of the above stock solutions were precisely measured, added into 1 mL volumetric flasks, and diluted to the mark with methanol to obtain a series of standard solutions with concentrations of 25, 50, 100, 200, 300, and 400 µg/mL, respectively. The peak areas of the series of standard solutions were detected by HPLC (mobile phase: 0.065% TFA in water + 0.05% TFA; chromatographic column: YMC-Triart C18; wavelength: 220 nm) to construct a concentration-peak area standard curve, where the abscissa represents concentration and the ordinate represents peak area.
The peak area of the sample was detected by HPLC, and its saturation in water was calculated through the concentration-peak area standard curve. Table 6 Results of detection of solubility of polypeptide conjugates in water

[2] = test system: U87-MG (human brain glioblastoma cells); experiment: Tumor cell proliferation inhibition (CCK8); type: cell-based; conditions: U-87 MG, 72 h
Description: (§1) Human highly metastatic hepatocellular carcinoma cells HCCLM3, human highly metastatic gastric cancer cells MKN45, human gastric cancer cells BGC-823 and MGC-803, non-small cell lung cancer cells A549, human pancreatic cancer cells ASPC-1, human colon cancer cells LoVo, human ovarian cancer cells A2780, human cervical cancer cells SiHa, human malignant melanoma cells SK-mel-2 and M14, human osteosarcoma cells Saos-2, human bladder transitional cell carcinoma cells T24, human brain glioblastoma cells U87-MG, human lymphoma cells Raji, and human epidermal cancer cells A431 were selected for the experiment. Among them, HCCLM3 cells, MKN45 cells, BGC-823 cells, MGC-803 cells, A431 cells and A549 cells were provided by Nanjing Anji Biotechnology Co., Ltd., and the other cells were provided by Nanjing Ouji Pharmaceutical Technology Service Co., Ltd.
(§2) The aforementioned tumor cells were preserved in a medium containing 10% fetal bovine serum and 1% penicillin-streptomycin, and incubated at 37°C with 5% CO2 and 95% humidity. The aforementioned tumor cells were cultured in T75 flasks with an experimental cell density of 80%. The aforementioned tumor cell lines were mycoplasma-negative.
(§3) Tumor cells in the logarithmic growth phase were taken for the experiment. The cells were digested, counted, and prepared into a cell suspension with a concentration of 1×10^5 cells/mL, which was then inoculated into a 96-well plate (100 µL per well). The 96-well plate was incubated in a 37°C, 5% CO2 incubator for 24 hours. […] After incubating the plate in the incubator for 72 h, the cell morphology of each group was observed under a microscope. Then, 10 µL of CCK8 solution (Nanjing Enjing Biotechnology Co., Ltd.) was added to each well, and the plate was further incubated in the cell incubator for 4 h. After incubation, the absorbance was measured at 450 nm, and the tumor cell proliferation inhibition rate was calculated. The efficiency ratio was the ratio of the IC50 value of the free drug to that of the polypeptide conjugate. Table 1 Tumor cell proliferation inhibition rates of polypeptide conjugates

[3] = test system: A549 (non-small cell lung cancer cells); experiment: Tumor cell proliferation inhibition (CCK8); type: cell-based; conditions: Homo sapiens, 72 h
Description: as §1, §2, §3

[4] = test system: ASPC-1 (human pancreatic cancer cells); experiment: Tumor cell proliferation inhibition (CCK8); type: cell-based; conditions: ASPC1, 72 h
Description: as §1, §2, §3

[5] = test system: LoVo (human colon cancer cells); experiment: Tumor cell proliferation inhibition (CCK8); type: cell-based; conditions: 72 h
Description: as §1, §2, §3

[6] = test system: M14 (human malignant melanoma cells); experiment: Tumor cell proliferation inhibition (CCK8); type: cell-based; conditions: 72 h
Description: as §1, §2, §3

[7] = test system: SK-mel-2 (human malignant melanoma cells); experiment: Tumor cell proliferation inhibition (CCK8); type: cell-based; conditions: 72 h
Description: as §1, §2, §3

[8] = test system: HCCLM3 (human highly metastatic hepatocellular carcinoma cells); experiment: Tumor cell proliferation inhibition (CCK8); type: cell-based; conditions: 72 h
Description: as §1, §2, §3

[9] = test system: SiHa (human cervical cancer cells); experiment: Tumor cell proliferation inhibition (CCK8); type: cell-based; conditions: 72 h
Description: as §1, §2, §3

[10] = test system: gastric cancer MKN45 xenograft tumors; experiment: In vivo tumor-inhibitory activity of DOC-AI, MKN45 xenograft; design: species or system BALB/c nude mice; conditions: 6.20 µmol/Kg
Description: (§4) Non-small cell lung cancer A549 cells and human gastric cancer MKN-45 cells were preserved in F12-K medium containing 10% fetal bovine serum and 1% penicillin + streptomycin, and incubated at 37°C with 5% CO2 and 95% humidity. The aforementioned cells were cultured in T175 flasks with an experimental cell density of 80%. The aforementioned cell lines were mycoplasma-negative. Both A549 cells and MKN-45 cells were provided by Nanjing Anji Biotechnology Co., Ltd.
Gastric cancer MKN45 cells in the vigorous growth stage were taken and inoculated subcutaneously into the right axilla of BALB/c nude mice (Hangzhou Ziyuan Laboratory Animal Technology Co., Ltd.) under sterile conditions, with a cell inoculation amount of 1×10^7. The diameter of transplanted tumors in nude mice was measured with a vernier caliper. When the tumors grew to approximately 50 mm^3, 18 tumor-bearing nude mice with good growth status and relatively uniform tumor size were selected and divided into 3 groups, with 6 mice in each group. The administration frequency was once every 3 days, and this cycle was repeated until day 21. The anti-tumor effect in the nude mice was dynamically observed by measuring the tumor diameter. The tumor diameter was measured every other day, and the body weight of the nude mice was weighed simultaneously during the measurement of the tumor diameter. After 21 days of administration, the nude mice were euthanized, the tumor inhibition rate (%) was calculated, and the tumor masses were peeled off and weighed. Table 7 Results of Detection of In Vivo Tumor-Inhibitory Activity of DOC-AI

[11] = test system: non-small cell lung cancer A549 xenograft tumors; experiment: In vivo tumor-inhibitory activity of DOC-AI, A549 xenograft; design: species or system BALB/c nude mice; conditions: 6.20 µmol/Kg, 4 days on, 3 days off until day 21
Description: Non-small cell lung cancer A549 cells in the vigorous growth stage were taken and inoculated subcutaneously into the right axilla of BALB/c nude mice (Nanjing Zhonghua Biotechnology Co., Ltd.) under sterile conditions, with a cell inoculation amount of 1×10^7. The diameter of transplanted tumors in nude mice was measured with a vernier caliper. When the tumors grew to approximately 50 mm^3, 30 tumor-bearing nude mice with good growth status and relatively uniform tumor size were selected and divided into 5 groups, with 6 mice in each group. The administration frequency was continuous administration for 4 days followed by an interval of 3 days, and this cycle was repeated until day 21. […] The tumor diameter was measured every other day, and the body weight of the nude mice was weighed simultaneously during the measurement of the tumor diameter. After 21 days of administration, the nude mice were euthanized, the tumor inhibition rate (%) was calculated, and the tumor masses were peeled off and weighed.

[12] = test system: MKN45 (human highly metastatic gastric cancer cells); experiment: Tumor cell proliferation inhibition (CCK8); type: cell-based; conditions: MKN-45, 72 h
Description: as §1, §2
as §3, with “h.” for “h. After incubation, the absorbance was measured at 450 nm, and the tumor cell proliferation inhibition rate was calculated. The efficiency ratio was the ratio of the IC50 value of the free drug to that of the polypeptide conjugate. Table 1 Tumor cell proliferation inhibition rates of polypeptide conjugates”

[13] = test system: MGC-803 (human gastric cancer cells); experiment: Tumor cell proliferation inhibition (CCK8); type: cell-based; conditions: 72 h
Description: as §1, §2
as §3, with “h.” for “h. After incubation, the absorbance was measured at 450 nm, and the tumor cell proliferation inhibition rate was calculated. The efficiency ratio was the ratio of the IC50 value of the free drug to that of the polypeptide conjugate. Table 1 Tumor cell proliferation inhibition rates of polypeptide conjugates”

[14] = test system: A2780 (human ovarian cancer cells); experiment: Tumor cell proliferation inhibition (CCK8); type: cell-based; conditions: 72 h
Description: as §1, §2
as §3, with “h.” for “h. After incubation, the absorbance was measured at 450 nm, and the tumor cell proliferation inhibition rate was calculated. The efficiency ratio was the ratio of the IC50 value of the free drug to that of the polypeptide conjugate. Table 1 Tumor cell proliferation inhibition rates of polypeptide conjugates”

[15] = test system: Raji (human lymphoma cells); experiment: Tumor cell proliferation inhibition (CCK8); type: cell-based; conditions: 72 h
Description: as §1, §2
as §3, with “h.” for “h. After incubation, the absorbance was measured at 450 nm, and the tumor cell proliferation inhibition rate was calculated. The efficiency ratio was the ratio of the IC50 value of the free drug to that of the polypeptide conjugate. Table 1 Tumor cell proliferation inhibition rates of polypeptide conjugates”

[16] = test system: Saos-2 (human osteosarcoma cells); experiment: Tumor cell proliferation inhibition (CCK8); type: cell-based; conditions: 72 h
Description: as §1, §2
as §3, with “h.” for “h. After incubation, the absorbance was measured at 450 nm, and the tumor cell proliferation inhibition rate was calculated. The efficiency ratio was the ratio of the IC50 value of the free drug to that of the polypeptide conjugate. Table 1 Tumor cell proliferation inhibition rates of polypeptide conjugates”

[17] = test system: BGC-823 (human gastric cancer cells); experiment: Tumor cell proliferation inhibition (CCK8); type: cell-based; conditions: 72 h
Description: as §1, §2
as §3, with “h.” for “h. After incubation, the absorbance was measured at 450 nm, and the tumor cell proliferation inhibition rate was calculated. The efficiency ratio was the ratio of the IC50 value of the free drug to that of the polypeptide conjugate. Table 1 Tumor cell proliferation inhibition rates of polypeptide conjugates”

[18] = test system: A431 (human epidermal cancer cells); experiment: Tumor cell proliferation inhibition (CCK8); type: cell-based; conditions: A-431, 72 h
Description: as §1, §2
as §3, with “h.” for “h. After incubation, the absorbance was measured at 450 nm, and the tumor cell proliferation inhibition rate was calculated. The efficiency ratio was the ratio of the IC50 value of the free drug to that of the polypeptide conjugate. Table 1 Tumor cell proliferation inhibition rates of polypeptide conjugates”

[19] = test system: T24 (human bladder transitional cell carcinoma cells); experiment: Tumor cell proliferation inhibition (CCK8); type: cell-based; conditions: 72 h
Description: as §1, §2
as §3, with “h.” for “h. After incubation, the absorbance was measured at 450 nm, and the tumor cell proliferation inhibition rate was calculated. The efficiency ratio was the ratio of the IC50 value of the free drug to that of the polypeptide conjugate. Table 1 Tumor cell proliferation inhibition rates of polypeptide conjugates”

[20] = test system: human gastric cancer cell MKN45 xenograft tumors; experiment: In vivo tumor-inhibitory activity of PTX-AI, MKN45 xenograft; design: species or system BALB/c nude mice; conditions: 5.28 µmol/Kg, once every 3 days, 21 days
Description: as §4
Human gastric cancer cells MKN-45 in the vigorous growth stage were taken and inoculated subcutaneously into the right axilla of BALB/c nude mice under sterile conditions, with a cell inoculation amount of 5×10^6. The diameter of transplanted tumors in nude mice was measured with a vernier caliper. When the tumors grew to approximately 50mm^3, […] tumor-bearing nude mice with good growth status and relatively uniform tumor size were selected, and divided into 6 groups, including 10 mice in the model group and 8 mice in each of the remaining groups. The anti-tumor effect of the test substance was dynamically observed by measuring the tumor diameter. The tumor diameter was measured every other day, and the body weight of the nude mice was weighed simultaneously during the measurement of the tumor diameter. After 21 days of administration, the nude mice were euthanized, the tumor inhibition rate (%) was calculated, and the tumor masses were peeled off and weighed. Table 3 Detection of In Vivo Tumor-Inhibitory Activity of PTX-AI

[21] = test system: MKN45 (human highly metastatic gastric cancer cells); experiment: Tumor cell proliferation inhibition (CCK8); type: cell-based; conditions: IC50 of free drug / IC50 of polypeptide conjugate
Description: as §1, §2, §3

[22] = test system: MGC-803 (human gastric cancer cells); experiment: Tumor cell proliferation inhibition (CCK8); type: cell-based; conditions: IC50 of free drug / IC50 of polypeptide conjugate
Description: as §1, §2, §3

[23] = test system: BGC-823 (human gastric cancer cells); experiment: Tumor cell proliferation inhibition (CCK8); type: cell-based; conditions: IC50 of free drug / IC50 of polypeptide conjugate
Description: as §1, §2, §3

[24] = test system: A431 (human epidermal cancer cells); experiment: Tumor cell proliferation inhibition (CCK8); type: cell-based; conditions: IC50 of free drug / IC50 of polypeptide conjugate
Description: as §1, §2, §3

[25] = MKN45 xenograft, once every 3 days until day 21

SMILES: CC(=O)O[C@@]12CO[C@@H]1C[C@H](O)[C@@]1(C)C(=O)[C@H](O)C3=C(C)[C@@H](OC(=O)[C@H](O)[C@@H](NC(=O)OC(C)(C)C)c4ccccc4)C[C@@](O)([C@@H](OC(=O)c4ccccc4)[C@H]21)C3(C)C [DOC, docetaxel]
- solubility at 15 min [1]: 0.0274 µg/mL (≈ 0.0339 µM)
- IC50 [2]: 5.4 nM
- IC50 [3]: 33.5 nM
- IC50 [4]: 4.35 nM
- IC50 [5]: 992 nM
- IC50 [6]: 3.68 nM
- IC50 [7]: 0.214 nM
- IC50 [8]: 431 nM
- IC50 [9]: 0.235 nM
- body weight changes ([10]; MKN45 xenograft nude mice, during the administration period): showed weight loss
- Tumor Inhibition Rate [10, 25]: 73.76±13.15%
- Tumor Weight [10, 25]: 579 ± 391 mg
- Final Tumor Volume ([10]; MKN45 xenograft, once every 3 days until day 21, in mm³ (unit assumed)): 256.67±391.25
- Tumor Inhibition Rate [11]: 59.55%
- Tumor Weight [11]: 283.00 ± 179.83 mg

SMILES: CC(=O)O[C@H]1C(=O)[C@@]2(C)[C@H]([C@H](OC(=O)c3ccccc3)[C@]3(O)C[C@H](OC(=O)[C@H](O)[C@@H](NC(=O)c4ccccc4)c4ccccc4)C(C)=C1C3(C)C)[C@]1(OC(C)=O)CO[C@@H]1C[C@@H]2O [PTX, paclitaxel]
- IC50 [12]: 3.21 nM
- IC50 [13]: 23.6 nM
- IC50 [14]: 0.19 nM
- IC50 [15]: 43.9 nM
- IC50 [16]: 0.77 nM
- IC50 [17]: 8.11 nM
- IC50 [18]: 0.17 nM
- IC50 [19]: 38.6 nM
- solubility at 15 min [1]: 0.12 µg/mL (≈ 0.141 µM)
- IC50 [8]: 9.4 nM
- Tumor Inhibition Rate [20]: 47.6%
- Tumor Weight [20]: 0.791 ± 0.151 g
- Final Tumor Volume ([20]; in mm³ (unit assumed)): 782.0±105.9

SMILES: CC(=O)O[C@H]1C(=O)[C@@]2(C)[C@H]([C@H](OC(=O)c3ccccc3)[C@]3(O)C[C@H](OC(=O)[C@H](OC(=O)CCCC(=O)N[C@@H](CCCNC(=N)N)C(=O)N[C@@H](CO)C(=O)N4CCC[C@H]4C(=O)N[C@@H](Cc4ccc(O)cc4)C(=O)N[C@@H](C)C(=O)N[C@@H](CC(N)=O)C(=O)N[C@@H](CO)C(=O)O)[C@@H](NC(=O)c4ccccc4)c4ccccc4)C(C)=C1C3(C)C)[C@]1(OC(C)=O)CO[C@@H]1C[C@@H]2O [PTX-5-AI]
- Efficiency Ratios [21]: 1.65
- Efficiency Ratios [22]: 1.27
- Efficiency Ratios [23]: 1.90
- Efficiency Ratios [24]: 2.13
